Test results: patent US9084419B2, “Method for reducing temperature stress of plants” (SUMITOMO CHEMICAL COMPANY, LIMITED, priority 2009, dated 2015)

Legend:
[1] = tested on: Rice (cultivar: NIHOMBARE); assay: Reduction of low temperature stress in hydroponics of rice; type: in vivo; conditions: hydroponic culture medium; stress exposed group, 2 to 4° C. for 3 to 7 days
Experimental: Rice seeds (cultivar: NIHOMBARE) are immersed in distilled water containing 1,000 ppm of Benlate and then incubated at 30° C. for one day. The seeds are washed with distilled water, incubated in distilled water for one day and then subjected to a forced germination treatment. In the bottom of a 288-well plug tray, cotton wool is spread and then the seeds subjected to the forced germination treatment are sown. A hydroponic culture medium (8-fold diluted Kimura B hydroponic culture solution) is added thereto, followed by cultivation for 3 to 10 days under the conditions of a temperature of 28° C. (day)/23° C. (night), a humidity of 60%, an illuminance of 7,100 lx, and a day length of 12 hours. A DMSO solution having a concentration 1,000 times of each test concentration of any one of the compounds A to G is prepared and then diluted with a hydroponic culture medium. An aqueous solution (250,000 ppm) of a sodium salt of the compound A is diluted with the hydroponic culture medium to prepare a liquid having a test concentration. The above rice seedling is transferred to these hydroponic culture media containing the compound, and then cultivated for 7 to 10 days under the conditions of a temperature of 28° C. (day)/23° C. (night), a humidity of 60%, an illuminance of 7,100 lx, and a day length of 12 hours. Using a hydroponic culture medium containing 0.1% DMSO added therein as a control of any one of the compounds A to G and using a hydroponic culture medium as a control of the sodium salt of the compound A, the above rice seedlings are cultivated to form a non-treated group. The seedlings during the treatment with the present compound are cultivated for 3 to 7 days under the conditions of a temperature of 2 to 4° C., a humidity of 40 to 70%, an illuminance of 3,500 lx, and a day length of 12 hours in the stress exposed group, and under the conditions of a temperature of 25 to 30° C., a humidity of 50 to 75%, an illuminance of 4,500 lx, and a day length of 12 hours in the stress non-exposed group. After the stress test, the plant length and the weight of the above-ground part are examined. Using a pulse modulation chlorophyll fluorometer (MAXI-IMAGING-PAM, WALZ), the chlorophyll fluorescence (Fv/Fm) is measured.

[2] = tested on: wheat (cultivar: Apogee); assay: Reduction of high temperature stress by wheat seed treatment (plant weight), Test Example 2; type: in vivo; conditions: 40° C. (day)/30° C. (night) for 14 days; for Fresh weight of the above-ground part: 32nd day after seeding
Experimental: A Blank slurry solution containing 5% (V/V) color coat red (Becker Underwood, Inc.), 5% (V/V) CF-Clear (Becker Underwood, Inc.) and 0.4% Maxim XL (Syngenta) was prepared. A sodium salt of the compound A was dissolved in the Blank slurry to obtain a slurry solution so as to control the amount of the sodium salt within a range from 0.5 mg to 2 mg per 1 g of seeds. Using a seed treating machine (HEGE11, manufactured by Hans-Ulrich Hege), seed coating was carried out by mixing 1.3 ml of the slurry solution with 50 g of wheat seeds (cultivar: Apogee) and the seeds were dried. As a control, seed coating was carried out using the Blank slurry solution in place of the slurry solution to obtain seeds for non-treated group. The coated seeds (5 seeds each) were sown in the growing soil (AISAI) in a plastic pot and then cultivated for 18 days under the conditions of a temperature of 20 to 25° C., a humidity of 50 to 75%, an illuminance of 5,300 lx, and a day length of 16 hours. Before the stress test, thinning was carried out to control the number of seedlings to 3 per pot. The above test plants on the 18th day after seeding were cultivated for 14 days under the conditions of a temperature of 40° C. (day)/30° C. (night), a humidity of 63% (day)/70% (night), an illuminance of 7,100 lx, and a day length of 16 hours. After the stress test, on the 32nd day after seeding, fresh weight of the above-ground part of test plants was examined for 4 to 7 pots.

[3] = tested on: roots; conditions: known from JP 4,087,942, JP 2001-139405, Plant and Soil 255: 67-75 (2003); cited from earlier work
[4] = tested on: Tomato (cultivar: Micro-Tom); assay: Reduction of high temperature stress by tomato soil irrigation treatment (fruit setting rate); type: in vivo; conditions: soil irrigation twice, 50 ml per seedling; 40° C. (day)/30° C. (night) for 7 days; 13 days after stress
Experimental: Tomato seeds (cultivar: Micro-Tom) were sown in the growing soil (AISAI) in a plastic pot and then cultivated in a greenhouse (set at a temperature of 25° C.) for about 4 weeks. A soil irrigation treatment was carried out twice, using an aqueous solution of a sodium salt of the compound A in an amount of 50 ml per seedling, on the 15th day and the 22nd day after seeding. As a control, a soil irrigation treatment was carried out using distilled water in an amount of 50 ml per seedling to form a non-treated group. After the irrigation treatment, plants cultivated up to the period when a 1st flower cluster blooms (1 to 2 flowers bloom(s), on the 32nd day after seeding) were cultivated for 7 days under the conditions of a temperature of 40° C. (day)/30° C. (night), a humidity of 63% (day)/70% (night), an illuminance of 7,100 lx, and a day length of 16 hours in the stress exposed group, while plants were cultivated for 7 days in a greenhouse (set at a temperature of 25° C.) in the stress non-exposed group. After the stress test, the test plants were cultivated for 13 days in a greenhouse (set at a temperature of 25° C.), the number of flower setting and the number of fruit setting were counted to determine a fruit setting rate (%) (number of fruit setting/number of flower setting×100).

[5] = tested on: wheat (cultivar: Apogee); assay: Reduction of high temperature stress by wheat foliage spraying treatment (plant weight); type: in vivo; conditions: foliage spray, 0.5 mg in 50 ml; 45° C., 17 hours; 4 days after stress
Experimental: Wheat (cultivar: Apogee) seeds were sown in the growing soil (AISAI) in a plastic pot ([…]×58 mm in height) and then cultivated for one week under the conditions of a temperature of 20 to 25° C., a humidity of 50 to 75%, an illuminance of 5,300 lx, and a day length of 16 hours.
A flowable formulation of the compound A was obtained by adding about 120 mg of a mixture of white carbon and a polyoxyethylene alkyl ether sulfate ammonium salt (weight ratio of 1:1) and 300 μl of water to 0.5 mg of the compound A, followed by fine grinding using a wet grinding method. The obtained flowable formulation was diluted with 50 ml of water to obtain a spray liquid. After adding 0.2% RINO as a sticker to the spray liquid, a sufficient amount (45 ml per 6 pots) was sprayed using an automatic spraying machine. As a control, a flowable formulation not containing the compound A was prepared and then sprayed to the non-treated group. Under the conditions of a temperature of 20 to 25° C., a humidity of 50 to 75%, an illuminance of 5,300 lx, and a day length of 16 hours, cultivation was carried out for 2 days.
The above test plants having been subjected to the spraying treatment were put in an artificial climate chamber set to the following conditions, and a stress test was carried out.
Temperature: 45° C., 17 hours, Illuminance: 6,500 to 7,900 lx, and Humidity: 50%. […]

[6] = tested on: wheat (cultivar: Apogee); assay: Reduction of high temperature stress by wheat seed treatment (plant weight), Test Example 10; type: in vivo; conditions: seed coating 5 mg per 1 g of seeds; 36° C. (day)/32° C. (night) for 19 days; 36th day after seeding
Experimental: A Blank slurry solution containing 5% (V/V) color coat red (Becker Underwood, Inc.), 5% (V/V) CF-Clear (Becker Underwood, Inc.) and 0.4% Maxim XL (Syngenta) was prepared. The compound C (methyl 4-oxo-4-(2-phenylethyl)aminobutyrate) or the compound E (5-oxo-5-[2-(3-indolyl)ethyl]aminovaleric acid) was dissolved in the Blank slurry to obtain a slurry solution so as to control the amount of the compound to be 5 mg per 1 g of seeds. Using a 50-ml conical tube, seed coating was carried out by mixing 1.3 ml of the slurry solution with 50 g of wheat seeds (cultivar: Apogee) and the seeds were dried. As a control, seed coating was carried out using the Blank slurry solution in place of the slurry solution to obtain seeds for non-treated group. The coated seeds (5 seeds each) were sown in the growing soil (AISAI) in a plastic pot and then cultivated in a greenhouse (set at a temperature of 18° C. (day)/15° C. (night)) for 17 days. Before the stress test, thinning was carried out to control the number of seedlings to 3 per pot.
The above test plants on the 17th day after seeding were cultivated for 19 days in an artificial climate chamber under the conditions of a temperature of 36° C. (day)/32° C. (night), a humidity of 50% (day)/60% (night), an illuminance of 7,000 lx, and a day length of 12 hours. […]

In the case of O=C([O-])CCC(=O)NCCc1ccccc1.[Na+] [Compound A, Na salt], the “chlorophyll fluorescence (Fv/Fm) vs non-treated group” value [1] was “increase”, the “plant length vs non-treated group” value [1] was “increase” and the “weight of the above-ground part vs non-treated group” value [1] was “increase”. For the same compound, the “Percentage relative to non-treated group (fresh weight of the above-ground part)” value (shortened to “Percentage relative to non-treated group”) ([2]; seed coating 0.5 mg/g of seeds) was 150%, the Fresh weight of the above-ground part ([2]; seed coating 0.5 mg/g of seeds) was 0.87 g/3 seedlings and the “Percentage relative to non-treated group” value ([2]; seed coating 1.0 mg/g of seeds) was 140%. For the same compound, the Fresh weight of the above-ground part ([2]; seed coating 1.0 mg/g of seeds) was 0.77 g/3 seedlings, the “Percentage relative to non-treated group” value ([2]; seed coating 2.0 mg/g of seeds) was 140% and the Fresh weight of the above-ground part ([2]; seed coating 2.0 mg/g of seeds) was 0.81 g/3 seedlings.
In the case of O=C(O)CCC(=O)NCCc1ccccc1 [compound A, 4-oxo-4-(2-phenylethyl)aminobutyric acid], the “activity to promote growth of roots” value [3] is given as “have activity to promote growth of roots”, the “fruit setting rate vs non-treated group” value [4] is given as “a decrease in fruit setting rate was remarkably alleviated” and the “fresh weight of the above-ground part vs non-treated group” value (from here on “fresh weight … vs non-treated group”) [5] is given as “increased”. The “visual evaluation of high temperature stress-induced withering and dying vs non-treated group” value [5] was “alleviation of high temperature stress-induced withering and dying was observed”.
With COC(=O)CCC(=O)NCCCCc1ccccc1 [compound B, methyl 4-oxo-4-(4-phenylbutyl)aminobutyrate] the “chlorophyll fluorescence (Fv/Fm) vs non-treated group” value [1] was “increase”, the “plant length vs non-treated group” value [1] was “increase” and the “weight of the above-ground part vs non-treated group” value [1] was “increase”.
For COC(=O)CCC(=O)NCCc1ccccc1 [compound C, methyl 4-oxo-4-(2-phenylethyl)aminobutyrate], the “fresh weight … vs non-treated group” value [6] was “increased”.
For O=C(O)CCCC(=O)NCCc1c[nH]c2ccccc12 [compound E, 5-oxo-5-[2-(3-indolyl)ethyl]aminovaleric acid], the “fresh weight … vs non-treated group” value [6] was “increased”.
